Columns and labels:
Type in all cases: physicochemical
[1] = Stability of M6G salts at room temperature over 6 years, HPLC; conditions: for Assay M6G corr.: content calculated as M6G derivative
[2] = Visual appearance on storage (Example 3)
How it was run: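 Aliquots (900 mg) kept at 2-8 °C beforehand were stored in argon-flushed brown opaque HDPE bottles at 25 °C/60% RH, 40 °C/75% RH and 60 °C. Visual appearance was assessed at set time points.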

[3] = Water content by Karl Fisher analysis on storage (Example 3)
How it was run: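 900 mg aliquots were held in argon-flushed brown opaque HDPE bottles at 25 °C/60% RH, 40 °C/75% RH and 60 °C. At each time point, water content (% w/w) was determined in duplicate on about 100 mg of equilibrated material by Karl Fischer titration.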

[4] = Colour of solution by visible spectrophotometry on storage (Example 3); conditions: 5% w/v solution in water
How it was run: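 5% w/v aqueous solution, absorbance at 420 nm in a 1 cm silica cell. Samples were stored in argon-flushed brown opaque HDPE bottles at 25° C./60% RH, 40° C./75% RH and 60° C.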

[5] = Stability indicating HPLC assay and related substances on storage (Example 3)
[6] = almost 6 years at room temperature

CN1CCC23c4c5ccc(O)c4OC2C(OC2OC(C(=O)O)C(O)C(O)C2O)C=CC3C1C5.CN1CCC23c4c5ccc(O)c4OC2C(OC2OC(C(=O)O)C(O)C(O)C2O)C=CC3C1C5.O=S(=O)(O)O (centres unmarked) [Morphine-6-glucuronide sulphate]
HN-33177 ([1]; 0 years): 0.2%
HN-75083 ([1]; 0 years): <0.1%
Unknown related substances (sum area %) ([1]; 0 years): 0.2 area %
Assay M6G corr. ([1]; 0 years): 93.6%
HN-33177 ([1]; 6 years at ambient temperature): 0.3%
HN-67002 ([1]; 6 years at ambient temperature): 1.1%
HN-67003 ([1]; 6 years at ambient temperature): 1.8%
Morphine ([1]; 6 years at ambient temperature): 0.2%
Unknown related substances (sum area %) ([1]; 6 years at ambient temperature): 10.7 area %
Assay M6G corr. ([1]; 6 years at ambient temperature): 76.8%
HN-33177 ([1]; 6 years at ambient temperature, listed as M6G2.H2SO4): did not change
largest unidentified peak [1, 6]: 6.55 area %
peaks present in the chromatogram that cannot be identified by retention time [1, 6]: 13
Appearance ([2]; 1 month, 25° C./60% RH): White crystalline powder
Appearance ([2]; 1 month, 40° C./75% RH): Slightly yellow crystalline powder
Appearance ([2]; 1 month, 60° C.): Pale yellow crystalline powder
Appearance ([2]; 3 months, 25° C./60% RH): Pale yellow crystalline powder
Appearance ([2]; 3 months, 40° C./75% RH): Slightly yellow crystalline powder
Appearance ([2]; Initial): White crystalline powder
Moisture ([3]; 1 month, 25° C./60% RH): 4.28 % w/w
Moisture ([3]; 1 month, 40° C./75% RH): 5.93 % w/w
Moisture ([3]; 1 month, 60° C.): 4.68 % w/w
Moisture ([3]; 3 months, 25° C./60% RH): 5.54 % w/w
Moisture ([3]; 3 months, 40° C./75% RH): 8.31 % w/w
Moisture ([3]; Initial): 3.77 % w/w
Colour ([4]; 1 month, 25° C./60% RH): 0.244 Abs@420 nm
Colour ([4]; 1 month, 40° C./75% RH): 0.430 Abs@420 nm
Colour ([4]; 1 month, 60° C.): 1.714 Abs@420 nm
Colour ([4]; 3 months, 25° C./60% RH): 0.406 Abs@420 nm
Colour ([4]; 3 months, 40° C./75% RH): 1.056 Abs@420 nm
Colour ([4]; Initial): 0.136 Abs@420 nm
Known Related Substances HN33177 ([5]; 1 month, 25° C./60% RH): 0.63%
Known Related Substances HN67003 ([5]; 1 month, 25° C./60% RH): 0.69%
Known Related Substances HN75083 ([5]; 1 month, 25° C./60% RH): 0.27%
M6G Assay, Anhydrous basis ([5]; 1 month, 25° C./60% RH): 81.82 % w/w
M6G Assay, As is basis ([5]; 1 month, 25° C./60% RH): 73.58 % w/w
M6G Assay, Corrected for the salt form ([5]; 1 month, 25° C./60% RH): 90.51 % w/w
Total Known ([5]; 1 month, 25° C./60% RH): 1.59%
Total Related Substances ([5]; 1 month, 25° C./60% RH): 4.29%
Total Unknown ([5]; 1 month, 25° C./60% RH): 2.70%
Known Related Substances HN33177 ([5]; 1 month, 40° C./75% RH): 0.50%
Known Related Substances HN67003 ([5]; 1 month, 40° C./75% RH): 1.58%
Known Related Substances HN75076 ([5]; 1 month, 40° C./75% RH): 0.06%
Known Related Substances HN75083 ([5]; 1 month, 40° C./75% RH): 0.74%
Known Related Substances Morphine ([5]; 1 month, 40° C./75% RH): 0.21%
M6G Assay, Anhydrous basis ([5]; 1 month, 40° C./75% RH): 73.67 % w/w
M6G Assay, As is basis ([5]; 1 month, 40° C./75% RH): 65.04 % w/w
M6G Assay, Corrected for the salt form ([5]; 1 month, 40° C./75% RH): 81.50 % w/w
Total Known ([5]; 1 month, 40° C./75% RH): 3.09%
Total Related Substances ([5]; 1 month, 40° C./75% RH): 9.78%
Total Unknown ([5]; 1 month, 40° C./75% RH): 6.69%
Known Related Substances HN33177 ([5]; 1 month, 60° C.): 0.23%
Known Related Substances HN67003 ([5]; 1 month, 60° C.): 2.73%
Known Related Substances HN75076 ([5]; 1 month, 60° C.): 0.26%
Known Related Substances HN75083 ([5]; 1 month, 60° C.): 0.61%
Known Related Substances Morphine ([5]; 1 month, 60° C.): 0.72%
M6G Assay, Anhydrous basis ([5]; 1 month, 60° C.): 63.84 % w/w
M6G Assay, As is basis ([5]; 1 month, 60° C.): 57.15 % w/w
M6G Assay, Corrected for the salt form ([5]; 1 month, 60° C.): 70.62 % w/w
Total Known ([5]; 1 month, 60° C.): 4.55%
Total Related Substances ([5]; 1 month, 60° C.): 18.25%
Total Unknown ([5]; 1 month, 60° C.): 13.70%
Known Related Substances HN33177 ([5]; 3 months, 25° C./60% RH): 0.52%
Known Related Substances HN67003 ([5]; 3 months, 25° C./60% RH): 1.36%
Known Related Substances HN75083 ([5]; 3 months, 25° C./60% RH): 0.53%
Known Related Substances Morphine ([5]; 3 months, 25° C./60% RH): 0.17%
M6G Assay, Anhydrous basis ([5]; 3 months, 25° C./60% RH): 77.05 % w/w
M6G Assay, As is basis ([5]; 3 months, 25° C./60% RH): 69.08 % w/w
M6G Assay, Corrected for the salt form ([5]; 3 months, 25° C./60% RH): 85.24 % w/w
Total Known ([5]; 3 months, 25° C./60% RH): 2.58%
Total Related Substances ([5]; 3 months, 25° C./60% RH): 9.16%
Total Unknown ([5]; 3 months, 25° C./60% RH): 6.58%
Known Related Substances HN33177 ([5]; 3 months, 40° C./75% RH): 0.23%
Known Related Substances HN67003 ([5]; 3 months, 40° C./75% RH): 1.72%
Known Related Substances HN75076 ([5]; 3 months, 40° C./75% RH): 0.04%
Known Related Substances HN75083 ([5]; 3 months, 40° C./75% RH): 0.58%
Known Related Substances Morphine ([5]; 3 months, 40° C./75% RH): 0.37%
M6G Assay, Anhydrous basis ([5]; 3 months, 40° C./75% RH): 68.38 % w/w
M6G Assay, As is basis ([5]; 3 months, 40° C./75% RH): 59.39 % w/w
M6G Assay, Corrected for the salt form ([5]; 3 months, 40° C./75% RH): 75.64 % w/w
Total Known ([5]; 3 months, 40° C./75% RH): 2.75%
Total Related Substances ([5]; 3 months, 40° C./75% RH): 17.98%
Total Unknown ([5]; 3 months, 40° C./75% RH): 15.23%
stability assessment ([5]; 25° C./60% RH, three months): least stable
Known Related Substances HN33177 ([5]; Initial): 0.69%
Known Related Substances HN67003 ([5]; Initial): 0.15%
Known Related Substances HN75076 ([5]; Initial): 0.01%
Known Related Substances HN75083 ([5]; Initial): 0.23%
M6G Assay, Anhydrous basis ([5]; Initial): 88.49 % w/w
M6G Assay, As is basis ([5]; Initial): 80.62 % w/w
M6G Assay, Corrected for the salt form ([5]; Initial): 97.87 % w/w
Total Known ([5]; Initial): 1.08%
Total Related Substances ([5]; Initial): 1.72%
Total Unknown ([5]; Initial): 0.64%
overall stability comparison ([5]; overall review of Example 3 data): least stable

— patent publication US20060166900A1, “Salt of morphine-6-glucuronide” (CeNeS Limited, priority 2002, published 2006)
